Experimental data: patent publication US20260055114A1, “IMIDAZO[1,2-B]PYRIDAZINE INHIBITORS OF CYCLIN-DEPENDENT KINASES” (H. LEE MOFFITT CANCER CENTER AND RESEARCH INSTITUTE, INC., priority 2022, published 2026)

Columns and labels:
[1] = biological target: CDK12 (Homo sapiens, UniProt Q9NYV4); test: Inhibition of cyclin-dependent kinase 12 (% enzyme activity at 1 uM and IC50); assay type: biochemical; conditions: for remaining activity at 1 µM: 1 uM compound
[2] = system: MDA-MB-231 cell line; test: Antiproliferative activity, MDA-MB-231 cell line (GI50); assay type: cell-based; conditions: Homo sapiens
[3] = system: CCNK; test: CCNK degradation (DC50, Dmax); assay type: cell-based; conditions: for Dmax (%): CCNK degradation

CDK12, sequence (Q9NYV4 whole entry): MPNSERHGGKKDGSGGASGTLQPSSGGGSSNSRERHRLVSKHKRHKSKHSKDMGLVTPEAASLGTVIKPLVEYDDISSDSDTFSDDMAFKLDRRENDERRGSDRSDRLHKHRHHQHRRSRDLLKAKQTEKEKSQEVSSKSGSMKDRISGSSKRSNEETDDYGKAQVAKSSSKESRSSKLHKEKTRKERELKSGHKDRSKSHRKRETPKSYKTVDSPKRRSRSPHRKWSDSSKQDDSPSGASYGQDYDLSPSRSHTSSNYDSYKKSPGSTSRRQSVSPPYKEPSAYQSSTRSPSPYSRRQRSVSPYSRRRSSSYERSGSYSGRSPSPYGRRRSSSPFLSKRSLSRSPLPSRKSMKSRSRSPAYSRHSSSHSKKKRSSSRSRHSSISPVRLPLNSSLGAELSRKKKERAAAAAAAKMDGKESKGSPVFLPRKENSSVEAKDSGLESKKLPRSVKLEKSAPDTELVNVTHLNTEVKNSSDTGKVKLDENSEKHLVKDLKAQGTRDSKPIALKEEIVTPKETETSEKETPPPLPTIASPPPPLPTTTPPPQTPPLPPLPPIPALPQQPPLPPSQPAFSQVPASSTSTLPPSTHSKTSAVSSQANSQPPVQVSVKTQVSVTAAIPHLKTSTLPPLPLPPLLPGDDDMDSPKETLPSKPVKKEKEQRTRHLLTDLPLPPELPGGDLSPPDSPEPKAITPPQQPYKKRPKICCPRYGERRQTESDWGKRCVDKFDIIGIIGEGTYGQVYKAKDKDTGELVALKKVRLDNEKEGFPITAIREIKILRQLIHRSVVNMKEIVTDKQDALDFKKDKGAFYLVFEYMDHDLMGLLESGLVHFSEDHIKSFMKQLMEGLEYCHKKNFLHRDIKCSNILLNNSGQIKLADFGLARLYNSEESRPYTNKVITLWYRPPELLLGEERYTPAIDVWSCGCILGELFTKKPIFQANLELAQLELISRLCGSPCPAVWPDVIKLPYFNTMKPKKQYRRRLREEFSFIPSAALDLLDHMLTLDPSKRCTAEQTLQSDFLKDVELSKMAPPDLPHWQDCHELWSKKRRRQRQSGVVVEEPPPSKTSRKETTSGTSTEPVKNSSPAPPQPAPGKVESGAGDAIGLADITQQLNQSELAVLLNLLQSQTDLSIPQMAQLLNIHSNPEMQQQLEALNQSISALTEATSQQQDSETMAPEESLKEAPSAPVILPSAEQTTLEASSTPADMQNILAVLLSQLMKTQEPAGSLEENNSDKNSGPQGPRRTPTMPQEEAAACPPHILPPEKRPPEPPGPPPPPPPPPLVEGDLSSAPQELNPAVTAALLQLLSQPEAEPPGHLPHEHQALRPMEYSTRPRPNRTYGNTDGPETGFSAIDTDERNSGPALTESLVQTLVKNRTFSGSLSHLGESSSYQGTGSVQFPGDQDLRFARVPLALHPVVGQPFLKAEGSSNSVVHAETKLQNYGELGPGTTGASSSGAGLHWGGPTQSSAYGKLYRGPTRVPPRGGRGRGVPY
CDK12, sequence (O75909 whole entry partner): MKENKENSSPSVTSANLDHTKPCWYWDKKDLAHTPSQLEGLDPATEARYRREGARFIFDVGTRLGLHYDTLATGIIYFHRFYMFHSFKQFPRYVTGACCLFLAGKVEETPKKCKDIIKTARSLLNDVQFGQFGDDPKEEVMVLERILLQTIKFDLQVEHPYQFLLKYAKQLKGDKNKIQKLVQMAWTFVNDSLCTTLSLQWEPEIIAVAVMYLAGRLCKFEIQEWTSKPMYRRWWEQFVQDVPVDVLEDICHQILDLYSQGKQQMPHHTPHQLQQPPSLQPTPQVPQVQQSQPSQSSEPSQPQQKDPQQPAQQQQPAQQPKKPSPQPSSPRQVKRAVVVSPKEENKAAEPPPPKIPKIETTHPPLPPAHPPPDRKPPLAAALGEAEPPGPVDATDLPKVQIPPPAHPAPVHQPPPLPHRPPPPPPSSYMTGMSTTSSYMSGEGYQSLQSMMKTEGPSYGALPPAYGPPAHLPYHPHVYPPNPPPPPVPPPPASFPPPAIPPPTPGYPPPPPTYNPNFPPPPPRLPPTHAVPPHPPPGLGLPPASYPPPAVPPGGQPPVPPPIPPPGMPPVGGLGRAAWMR

IC50 [1] [nM] | GI50 [2] [nM] | DC50 [3] [nM] | remaining activity at 1 µM [1] [%] | SMILES | Dmax (%) [3] [%]
3000 | 3840 | 460 | – | Cn1cc(-c2cnc3c(NCc4nc5c(F)c(F)ccc5[nH]4)cc(N4CCOCC4)nn23)cn1 [Cmpd 6, N-((4,5-difluoro-1H-benzo[d]imidazol-2-yl)methyl)-3-(1-methyl-1H-pyrazol-4-yl)-6-morpholinoimidazo[1,2-b]pyridazin-8-amine] | 75
9560 | 564 | 680 | – | Cn1cc(-c2cnc3c(NCc4nc5cc(Cl)c(Cl)cc5[nH]4)cc(N4CCOCC4)nn23)cn1 [Cmpd 9, N-((5,6-dichloro-1H-benzo[d]imidazol-2-yl)methyl)-3-(1-methyl-1H-pyrazol-4-yl)-6-morpholinoimidazo[1,2-b]pyridazin-8-amine] | 95
1000 | 7930 | 5600 | – | Cc1ccnc2[nH]c(CNc3cc(N4CCN(C)CC4)nn4c(-c5cnn(C)c5)cnc34)nc12 [Cmpd 11, 3-(1-methyl-1H-pyrazol-4-yl)-N-((7-methyl-3H-imidazo[4,5-b]pyridin-2-yl)methyl)-6-(4-methylpiperazin-1-yl) imidazo[1,2-b]pyridazin-8-amine] | 60
1000 | 5690 | 2100 | – | Cc1ccnc2[nH]c(CNc3cc(N4CCOCC4)nn4c(-c5cnn(C)c5)cnc34)nc12 [Cmpd 12, 3-(1-methyl-1H-pyrazol-4-yl)-N-((7-methyl-3H-imidazo[4,5-b]pyridin-2-yl)methyl)-6-morpholinoimidazo[1,2-b]pyridazin-8-amine] | 65
531 | 6670 | 10000 | 30 | Cc1ccnc2[nH]c(CNc3cc(N4CCN(C)CC4)nn4c(-c5cnn(C(C)C)c5)cnc34)nc12 [Cmpd 20, 3-(1-isopropyl-1H-pyrazol-4-yl)-N-((7-methyl-3H-imidazo[4,5-b]pyridin-2-yl)methyl)-6-(4-methylpiperazin-1-yl) imidazo[1,2-b]pyridazin-8-amine] | –
722 | 10000 | 10000 | 34 | Cc1ccnc2[nH]c(CNc3cc(N4CCOCC4)nn4c(-c5cnn(C(C)C)c5)cnc34)nc12 [Cmpd 21, 3-(1-isopropyl-1H-pyrazol-4-yl)-N-((7-methyl-3H-imidazo[4,5-b]pyridin-2-yl)methyl)-6-morpholinoimidazo[1,2-b]pyridazin-8-amine] | –
1270 | 10000 | 2100 | 60 | CC(C)n1cc(-c2cnc3c(NCc4nc5c(F)c(F)ccc5[nH]4)cc(N4CCOCC4)nn23)cn1 [Cmpd 24, N-((4,5-difluoro-1H-benzo[d]imidazol-2-yl)methyl)-3-(1-isopropyl-1H-pyrazol-4-yl)-6-morpholinoimidazo[1,2-b]pyridazin-8-amine] | 65
1080 | 10000 | 1600 | 52 | CC(C)n1cc(-c2cnc3c(NCc4nc5c(F)cccc5[nH]4)cc(N4CCOCC4)nn23)cn1 [Cmpd 27, N-((4-fluoro-1H-benzo[d]imidazol-2-yl)methyl)-3-(1-isopropyl-1H-pyrazol-4-yl)-6-morpholinoimidazo[1,2-b]pyridazin-8-amine] | 50
1220 | 4670 | 830 | 45 | Fc1cccc2[nH]c(CNc3cc(N4CCOCC4)nn4c(-c5cnn(C6CC6)c5)cnc34)nc12 [Cmpd 36, 3-(1-cyclopropyl-1H-pyrazol-4-yl)-N-((4-fluoro-1H-benzo[d]imidazol-2-yl)methyl)-6-morpholinoimidazo[1,2-b]pyridazin-8-amine] | 65

More lines, now with the values behind:

SMILES | IC50 [1] [nM] | GI50 [2] [nM] | DC50 [3] [nM] | remaining activity at 1 µM [1] [%] | Dmax (%) [3] [%]
CN1CCN(c2cc(NCc3nc4c(F)c(F)ccc4[nH]3)c3ncc(-c4cnn(C)c4)n3n2)CC1 [Cmpd 5, N-((4,5-difluoro-1H-benzo[d]imidazol-2-yl)methyl)-3-(1-methyl-1H-pyrazol-4-yl)-6-(4-methylpiperazin-1-yl) imidazo[1,2-b]pyridazin-8-amine] | 3000 | 4280 | 1300 | – | 65
CN1CCN(c2cc(NCc3nc4cc(Cl)c(Cl)cc4[nH]3)c3ncc(-c4cnn(C)c4)n3n2)CC1 [Cmpd 8, N-((5,6-dichloro-1H-benzo[d]imidazol-2-yl)methyl)-3-(1-methyl-1H-pyrazol-4-yl)-6-(4-methylpiperazin-1-yl) imidazo[1,2-b]pyridazin-8-amine] | 10000 | 424 | 1300 | – | 100
CC(C)n1cc(-c2cnc3c(NCc4nc5cc(Cl)c(Cl)cc5[nH]4)cc(N4CCN(C)CC4)nn23)cn1 [Cmpd 14, N-((5,6-dichloro-1H-benzo[d]imidazol-2-yl)methyl)-3-(1-isopropyl-1H-pyrazol-4-yl)-6-(4-methylpiperazin-1-yl) imidazo[1,2-b]pyridazin-8-amine] | 5000 | 1770 | 10000 | 84 | –
CC(C)n1cc(-c2cnc3c(NCc4nc5cc(Cl)c(Cl)cc5[nH]4)cc(N4CCOCC4)nn23)cn1 [Cmpd 15, N-((5,6-dichloro-1H-benzo[d]imidazol-2-yl)methyl)-3-(1-isopropyl-1H-pyrazol-4-yl)-6-morpholinoimidazo[1,2-b]pyridazin-8-amine] | 3000 | 4110 | 2100 | 68 | 65
CC(C)n1cc(-c2cnc3c(NCc4nc5cccc(Cl)c5[nH]4)cc(N4CCN(C)CC4)nn23)cn1 [Cmpd 17, N-((7-chloro-1H-benzo[d]imidazol-2-yl)methyl)-3-(1-isopropyl-1H-pyrazol-4-yl)-6-(4-methylpiperazin-1-yl) imidazo[1,2-b]pyridazin-8-amine] | 919 | 5600 | 10000 | 45 | –
CC(C)n1cc(-c2cnc3c(NCc4nc5cccc(Cl)c5[nH]4)cc(N4CCOCC4)nn23)cn1 [Cmpd 18, N-((7-chloro-1H-benzo[d]imidazol-2-yl)methyl)-3-(1-isopropyl-1H-pyrazol-4-yl)-6-morpholinoimidazo[1,2-b]pyridazin-8-amine] | 997 | 9920 | 1800 | 48 | 70
CC(C)n1cc(-c2cnc3c(NCc4nc5c(F)c(F)ccc5[nH]4)cc(N4CCN(C)CC4)nn23)cn1 [Cmpd 23, N-((4,5-difluoro-1H-benzo[d]imidazol-2-yl)methyl)-3-(1-isopropyl-1H-pyrazol-4-yl)-6-(4-methylpiperazin-1-yl) imidazo[1,2-b]pyridazin-8-amine] | 1110 | 5180 | 10000 | 53 | –
CC(C)n1cc(-c2cnc3c(NCc4nc5c(F)cccc5[nH]4)cc(N4CCN(C)CC4)nn23)cn1 [Cmpd 26, N-((4-fluoro-1H-benzo[d]imidazol-2-yl)methyl)-3-(1-isopropyl-1H-pyrazol-4-yl)-6-(4-methylpiperazin-1-yl) imidazo[1,2-b]pyridazin-8-amine] | 1110 | 6070 | 10000 | 53 | –
CN1CCN(c2cc(NCc3nc4cc(Cl)c(Cl)cc4[nH]3)c3ncc(-c4cnn(C5CC5)c4)n3n2)CC1 [Cmpd 29, 3-(1-cyclopropyl-1H-pyrazol-4-yl)-N-((5,6-dichloro-1H-benzo[d]imidazol-2-yl)methyl)-6-(4-methylpiperazin-1-yl) imidazo[1,2-b]pyridazin-8-amine] | – | 1120 | 10000 | 81 | –
Clc1cc2nc(CNc3cc(N4CCOCC4)nn4c(-c5cnn(C6CC6)c5)cnc34)[nH]c2cc1Cl [Cmpd 30, 3-(1-cyclopropyl-1H-pyrazol-4-yl)-N-((5,6-dichloro-1H-benzo[d]imidazol-2-yl)methyl)-6-morpholinoimidazo[1,2-b]pyridazin-8-amine] | – | 2120 | 3000 | 83 | 70
CN1CCN(c2cc(NCc3nc4cccc(Cl)c4[nH]3)c3ncc(-c4cnn(C5CC5)c4)n3n2)CC1 [Cmpd 32, N-((7-chloro-1H-benzo[d]imidazol-2-yl)methyl)-3-(1-cyclopropyl-1H-pyrazol-4-yl)-6-(4-methylpiperazin-1-yl) imidazo[1,2-b]pyridazin-8-amine] | 2080 | 4430 | 1400 | 45 | 50
Clc1cccc2nc(CNc3cc(N4CCOCC4)nn4c(-c5cnn(C6CC6)c5)cnc34)[nH]c12 [Cmpd 33, N-((7-chloro-1H-benzo[d]imidazol-2-yl)methyl)-3-(1-cyclopropyl-1H-pyrazol-4-yl)-6-morpholinoimidazo[1,2-b]pyridazin-8-amine] | – | 6160 | 830 | 60 | 65
CN1CCN(c2cc(NCc3nc4c(F)cccc4[nH]3)c3ncc(-c4cnn(C5CC5)c4)n3n2)CC1 [Cmpd 35, 3-(1-cyclopropyl-1H-pyrazol-4-yl)-N-((4-fluoro-1H-benzo[d]imidazol-2-yl)methyl)-6-(4-methylpiperazin-1-yl) imidazo[1,2-b]pyridazin-8-amine] | – | 5170 | 1300 | 49 | 80
CN1CCN(c2cc(NCc3nc4cc(Cl)c(Cl)cc4[nH]3)c3ncc(-c4cnn(C(F)F)c4)n3n2)CC1(C)C [Cmpd 49, N-((5,6-dichloro-1H-benzo[d]imidazol-2-yl)methyl)-3-(1-(difluoromethyl)-1H-pyrazol-4-yl)-6-(3,3,4-trimethylpiperazin-1-yl) imidazo[1,2-b]pyridazin-8-amine] | – | 465 | 370 | – | 95
CN(C)c1cc(NCc2nc3cccc(Cl)c3[nH]2)c2ncc(-c3ccsc3)n2n1 [Cmpd 73, N8-((7-chloro-1H-benzo[d]imidazol-2-yl)methyl)-N6,N6-dimethyl-3-(thiophen-3-yl) imidazo[1,2-b]pyridazine-6,8-diamine] | 1000 | 5000 | – | – | –
